# Data reported in patent publication US10597388B2, “Pyridazinone herbicides” (FMC CORPORATION, priority 2014, dated 2020).
# Columns and labels:
# Type in all cases: in vivo
# [1] = system: oat, wild (wild oat, Avena fatua); assay: Test C greenhouse herbicide test, postemergence
# Procedure, shortened: (§1)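 Visual injury scores (0–100, where 100 means complete control) were assigned 13 to 15 d after postemergence application, by comparison with untreated plants. Treated seedlings stood 2 to 18 cm tall, at the 1- to 4-leaf stage.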
# kochia (Kochia scoparia) = assay: Test C greenhouse herbicide test, postemergence
# Procedure, shortened: as §1
# [2] = system: johnsongrass (Sorghum halepense); assay: Test C greenhouse herbicide test, pre- and postemergence
# Procedure, shortened: (§2)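 Visual ratings on a 0 to 100 scale (0 = no effect, 100 = complete control) versus untreated controls, scored 13–15 d after treatment. Soil-applied preemergence to seeded loam/sand; foliar postemergence to 1- to 4-leaf plants (2–18 cm) in peat-vermiculite mix; compounds formulated in solvent plus surfactant.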
# [3] = system: waterhemp (common waterhemp, Amaranthus rudis); assay: as above
# Procedure, shortened: as §2
# soybean (Glycine max) = assay: as above
# Procedure, shortened: as §2
# [4] = system: wheat (winter wheat, Triticum aestivum); assay: as above
# Procedure, shortened: as §2
# [5] = system: foxtail, giant (giant foxtail, Setaria faberii); assay: as above
# Procedure, shortened: as §2
# [6] = system: galium (catchweed bedstraw, Galium aparine); assay: as above
# Procedure, shortened: as §2
# [7] = system: pigweed (Amaranthus retroflexus); assay: as above
# Procedure, shortened: as §2
# [8] = system: blackgrass (Alopecurus myosuroides); assay: as above
# Procedure, shortened: as §2
# [9] = system: morningglory (Ipomoea coccinea); assay: as above
# Procedure, shortened: as §2
# [10] = system: barnyardgrass (Echinochloa crus-galli); assay: as above
# Procedure, shortened: as §2
# corn (Zea mays) = assay: as above
# Procedure, shortened: as §2
# [11] = system: oilseed rape (Brassica napus); assay: as above
# Procedure, shortened: as §2
# [12] = system: velvetleaf (Abutilon theophrasti); assay: as above
# Procedure, shortened: as §2
# [13] = system: ragweed (common ragweed, Ambrosia elatior); assay: as above
# Procedure, shortened: as §2
# [14] = system: crabgrass, large (large crabgrass, Digitaria sanguinalis); assay: as above
# Procedure, shortened: as §2
# [15] = Postemergence, 31 g ai/ha, 0 to 100 scale (0 no effect, 100 complete control)
# [16] = Postemergence, 125 g ai/ha, scale 0 to 100, 0 is no effect, 100 is complete control
# [17] = Postemergence, 250 g ai/ha, scale 0 to 100, 0 no effect, 100 complete control, 13 to 15 d
# [18] = postemergence, 62 g ai/ha, scale 0 to 100, 0 no effect, 100 complete control
smiles,measurement,setting,value
Cc1cc(C)c2ccccc2c1-c1c(O)cnn(C)c1=O [Compound 51],"Oat, Wild plant response rating",[1]; [15],0
same,"Plant response rating, Oat, Wild",[1]; [16],5
same,"Plant response rating, Oat, Wild",[1]; [17],10
same,"Oat, Wild plant response rating",[1]; [18],5
same,Kochia plant response rating,kochia (Kochia scoparia); [15],0
same,"Plant response rating, Kochia",kochia (Kochia scoparia); [16],50
same,"Plant response rating, Kochia",kochia (Kochia scoparia); [17],75
same,Kochia plant response rating,kochia (Kochia scoparia); [18],15
same,Johnsongrass plant response rating,[2]; [15],0
same,"Plant response rating, Johnsongrass",[2]; [16],0
same,"Plant response rating, Johnsongrass",[2]; [17],0
same,Johnsongrass plant response rating,[2]; [18],0
same,Waterhemp plant response rating,[3]; [15],30
same,"Plant response rating, Waterhemp",[3]; [16],80
same,Waterhemp plant response rating,[3]; [18],50
same,Soybean plant response rating,soybean (Glycine max); [15],0
same,"Plant response rating, Soybean",soybean (Glycine max); [16],0
same,"Plant response rating, Soybean",soybean (Glycine max); [17],0
same,Soybean plant response rating,soybean (Glycine max); [18],0
same,Wheat plant response rating,[4]; [15],0
same,"Plant response rating, Wheat",[4]; [16],0
same,"Plant response rating, Wheat",[4]; [17],0
same,Wheat plant response rating,[4]; [18],0
same,"Foxtail, Giant plant response rating",[5]; [15],5
same,"Plant response rating, Foxtail, Giant",[5]; [16],15
same,"Plant response rating, Foxtail, Giant",[5]; [17],35
same,"Foxtail, Giant plant response rating",[5]; [18],5
same,Galium plant response rating,[6]; [15],85
same,"Plant response rating, Galium",[6]; [16],90
same,"Plant response rating, Galium",[6]; [17],95
same,Galium plant response rating,[6]; [18],90
same,Pigweed plant response rating,[7]; [15],60
same,"Plant response rating, Pigweed",[7]; [16],70
same,"Plant response rating, Pigweed",[7]; [17],85
same,Pigweed plant response rating,[7]; [18],65
same,Blackgrass plant response rating,[8]; [15],0
same,"Plant response rating, Blackgrass",[8]; [16],0
same,"Plant response rating, Blackgrass",[8]; [17],10
same,Blackgrass plant response rating,[8]; [18],0
same,Morningglory plant response rating,[9]; [15],5
same,"Plant response rating, Morningglory",[9]; [16],75
same,"Plant response rating, Morningglory",[9]; [17],75
same,Morningglory plant response rating,[9]; [18],55
same,Barnyardgrass plant response rating,[10]; [15],5
same,"Plant response rating, Barnyardgrass",[10]; [16],10
same,"Plant response rating, Barnyardgrass",[10]; [17],20
same,Barnyardgrass plant response rating,[10]; [18],5
same,Corn plant response rating,corn (Zea mays); [15],0
same,"Plant response rating, Corn",corn (Zea mays); [16],0
same,"Plant response rating, Corn",corn (Zea mays); [17],0
same,Corn plant response rating,corn (Zea mays); [18],0
same,Oilseed Rape plant response rating,[11]; [15],0
same,"Plant response rating, Oilseed Rape",[11]; [16],5
same,"Plant response rating, Oilseed Rape",[11]; [17],5
same,Oilseed Rape plant response rating,[11]; [18],5
same,Velvetleaf plant response rating,[12]; [15],5
same,"Plant response rating, Velvetleaf",[12]; [16],50
same,"Plant response rating, Velvetleaf",[12]; [17],70
same,Velvetleaf plant response rating,[12]; [18],20
same,Ragweed plant response rating,[13]; [15],10
same,"Plant response rating, Ragweed",[13]; [16],5
same,"Plant response rating, Ragweed",[13]; [17],25
same,Ragweed plant response rating,[13]; [18],5
same,"Crabgrass, Large plant response rating",[14]; [15],0
same,"Plant response rating, Crabgrass, Large",[14]; [16],10
same,"Plant response rating, Crabgrass, Large",[14]; [17],10
same,"Crabgrass, Large plant response rating",[14]; [18],5
Cc1ccc(-c2c(O)c(Br)nn(C)c2=O)c2ccccc12 [Compound 52],"Oat, Wild plant response rating",[1]; [15],0
same,"Plant response rating, Oat, Wild",[1]; [16],0
same,"Plant response rating, Oat, Wild",[1]; [17],0
same,"Oat, Wild plant response rating",[1]; [18],0
same,Kochia plant response rating,kochia (Kochia scoparia); [15],0
same,"Plant response rating, Kochia",kochia (Kochia scoparia); [16],5
same,"Plant response rating, Kochia",kochia (Kochia scoparia); [17],70
same,Kochia plant response rating,kochia (Kochia scoparia); [18],0
same,Johnsongrass plant response rating,[2]; [15],5
same,"Plant response rating, Johnsongrass",[2]; [16],10
same,"Plant response rating, Johnsongrass",[2]; [17],15
same,Johnsongrass plant response rating,[2]; [18],10
same,Waterhemp plant response rating,[3]; [15],10
same,"Plant response rating, Waterhemp",[3]; [16],10
same,"Plant response rating, Waterhemp",[3]; [17],55
same,Waterhemp plant response rating,[3]; [18],10
same,Soybean plant response rating,soybean (Glycine max); [15],0
same,"Plant response rating, Soybean",soybean (Glycine max); [16],0
same,"Plant response rating, Soybean",soybean (Glycine max); [17],0
same,Soybean plant response rating,soybean (Glycine max); [18],0
same,Wheat plant response rating,[4]; [15],0
same,"Plant response rating, Wheat",[4]; [16],0
same,"Plant response rating, Wheat",[4]; [17],0
same,Wheat plant response rating,[4]; [18],0
same,"Foxtail, Giant plant response rating",[5]; [15],0
same,"Plant response rating, Foxtail, Giant",[5]; [16],10
same,"Plant response rating, Foxtail, Giant",[5]; [17],35
same,"Foxtail, Giant plant response rating",[5]; [18],5
same,Galium plant response rating,[6]; [15],90
same,"Plant response rating, Galium",[6]; [16],100
same,"Plant response rating, Galium",[6]; [17],100
same,Galium plant response rating,[6]; [18],100
same,Pigweed plant response rating,[7]; [15],30
same,"Plant response rating, Pigweed",[7]; [16],10
same,"Plant response rating, Pigweed",[7]; [17],55
same,Pigweed plant response rating,[7]; [18],5
same,Blackgrass plant response rating,[8]; [15],0
same,"Plant response rating, Blackgrass",[8]; [16],30
same,"Plant response rating, Blackgrass",[8]; [17],30
same,Blackgrass plant response rating,[8]; [18],10
same,Morningglory plant response rating,[9]; [15],98
same,"Plant response rating, Morningglory",[9]; [16],100
same,"Plant response rating, Morningglory",[9]; [17],100
same,Morningglory plant response rating,[9]; [18],100
same,Barnyardgrass plant response rating,[10]; [15],5
same,"Plant response rating, Barnyardgrass",[10]; [16],5
same,"Plant response rating, Barnyardgrass",[10]; [17],10
same,Barnyardgrass plant response rating,[10]; [18],5
same,Corn plant response rating,corn (Zea mays); [15],0
same,"Plant response rating, Corn",corn (Zea mays); [16],0
same,"Plant response rating, Corn",corn (Zea mays); [17],0
same,Corn plant response rating,corn (Zea mays); [18],0
same,Oilseed Rape plant response rating,[11]; [15],0
same,"Plant response rating, Oilseed Rape",[11]; [16],0
same,"Plant response rating, Oilseed Rape",[11]; [17],0
same,Oilseed Rape plant response rating,[11]; [18],0
same,Velvetleaf plant response rating,[12]; [15],5
same,"Plant response rating, Velvetleaf",[12]; [16],55
same,"Plant response rating, Velvetleaf",[12]; [17],100
same,Velvetleaf plant response rating,[12]; [18],25
same,Ragweed plant response rating,[13]; [15],55
same,"Plant response rating, Ragweed",[13]; [16],80
same,"Plant response rating, Ragweed",[13]; [17],98
same,Ragweed plant response rating,[13]; [18],65
same,"Crabgrass, Large plant response rating",[14]; [15],0
same,"Plant response rating, Crabgrass, Large",[14]; [16],5
same,"Plant response rating, Crabgrass, Large",[14]; [17],10
same,"Crabgrass, Large plant response rating",[14]; [18],0
